Measurements as given in PubChem BioAssay AID1996.
In brackets after ≈: the same amount, converted by molar mass.

conditions: buffer; pH 7.4; 200.0 µM

Structure (SMILES)	solubility kinetic
COc1cccc(NC(=O)N2CCCC2C(=O)NC2CCCC2)c1 (stereo not given)	45.9 µg/mL (≈ 138 µM)
N#C/C(=C\c1c[nH]c2ccccc12)C(=O)NC1CC1	11.4 µg/mL (≈ 45.4 µM)
O=C(CNC1CCCCC1)Nc1ccc(Cl)cc1	38 µg/mL (≈ 142 µM)
CC(C)C(=O)Nc1cc(-c2nc3ncccc3o2)ccc1Cl	6 µg/mL (≈ 19 µM)
COc1ccccc1C(=O)NC(=O)COC(=O)C1CC1	> 41.6 µg/mL
CC(=O)Nc1ccc2oc(-c3ccccc3)nc2c1	13.1 µg/mL (≈ 51.9 µM)
CCOC(=O)C1(C)Oc2ccc(S(=O)(=O)CC)cc2NC1=O (stereo not given)	42.7 µg/mL (≈ 130 µM)
NC(=O)C1CCN(C(=O)/C=C/c2cccc(Br)c2)CC1	46.9 µg/mL (≈ 139 µM)
Cc1cccc(C(=O)NCC(=O)OCC(=O)NC2CCCCC2)c1	> 49.9 µg/mL
Cc1ccc(S(=O)(=O)NCC(=O)NNC(=O)c2ccccc2Cl)cc1C	> 59.4 µg/mL
COc1ccc(/C=C/C(=O)OCC(=O)NC2CCCC(C)C2C)cc1 (stereo not given)	6.1 µg/mL (≈ 17.7 µM)
COc1ccc(C)cc1NC(=O)NC1CCCCCCC1	< 0.3 µg/mL
CCc1cccc(NC(=O)Cn2cc(C=O)c3ccccc32)c1	0.5 µg/mL (≈ 1.63 µM)
COc1cccc(CNc2ncc(-c3ccccc3)n2C)c1	32.9 µg/mL (≈ 112 µM)
Cc1ccc(N(C)S(=O)(=O)c2cccc(C(=O)OCC(=O)c3c(N)n(C)c(=O)n(C)c3=O)c2)cc1	8.1 µg/mL (≈ 16.2 µM)
O=C1CN(C(=O)c2ccc(Cl)c([N+](=O)[O-])c2)c2ccccc2N1	> 49.8 µg/mL
O=C(COC(=O)C1CC(=O)N(Cc2ccco2)C1)Nc1ccc(F)cc1F (stereo not given)	> 56.7 µg/mL
COc1cccc(C(=O)N2CCn3c2nc2ccccc23)c1	> 44 µg/mL
CN(CC(=O)Nc1ccc(F)cc1)C(=O)c1ccc(OCc2cn3ccccc3n2)cc1	10.4 µg/mL (≈ 24 µM)
Cc1ccsc1C1C(C#N)=C(N)OC2=C1C(=O)CC(C)(C)C2 (stereo not given)	> 47.2 µg/mL
Cc1cccc(C)c1OCC(=O)NCC1CCCO1 (stereo not given)	39.5 µg/mL (≈ 150 µM)
c1cc2c3c(cccc3c1)NC(c1ccc3c(c1)OCO3)N2	9.5 µg/mL (≈ 32.7 µM)
CC1Oc2ccccc2N(CC(=O)NCc2ccc3c(c2)OCO3)C1=O (stereo not given)	18.9 µg/mL (≈ 53.3 µM)
Nc1cc(N)nc(SCC(=O)NNC(=O)Cc2ccccc2)n1	> 49.9 µg/mL

Structure (SMILES)	solubility kinetic
CC(C(=O)NCc1ccccc1Cl)N1C(=O)c2ccccc2C1=O (stereo not given)	> 51.4 µg/mL
CCN(CC)S(=O)(=O)c1cc(NS(=O)(=O)c2cccs2)ccc1C	> 58.3 µg/mL
Nc1nc2ccccc2n1CCOc1ccc(Cl)cc1	25.8 µg/mL (≈ 89.7 µM)
Brc1ccc(-c2csc(N3CCCCCC3)n2)cc1	1.2 µg/mL (≈ 3.56 µM)
O=C(c1ccc(Cn2cc([N+](=O)[O-])cn2)o1)N1CCCC1	> 43.5 µg/mL
COc1ccc(C)cc1S(=O)(=O)n1cnc2ccccc21	6.8 µg/mL (≈ 22.5 µM)
CN(C(=O)c1c[nH]c(=O)cc1C(F)(F)F)c1ccc(Cl)cc1	45.9 µg/mL (≈ 139 µM)
CN1C(=O)c2ccccc2N(C)C1c1ccccc1Cl (stereo not given)	> 43 µg/mL
Cc1cc(OC(=O)N(C)C)nc(SCc2c(Cl)cccc2Cl)n1	6.5 µg/mL (≈ 17.5 µM)
CC(=O)Nc1ccc(NC(=O)COC(=O)C2CCC(C(C)(C)C)CC2)cc1 (stereo not given)	3.7 µg/mL (≈ 9.88 µM)
CCN(c1cccc(C)c1)S(=O)(=O)c1ccc(OC)c([N+](=O)[O-])c1	< 0.4 µg/mL
O=C1CC(NC(=O)c2ccc(Cl)cc2)C(=O)N1 (stereo not given)	> 37.9 µg/mL
O=C(Nc1ccc(F)cc1)Nc1cccnc1Cl	13.8 µg/mL (≈ 51.9 µM)
CCc1nc2ccccc2c(C(=O)OCC(=O)N(C)Cc2ccccc2)c1C	4.9 µg/mL (≈ 13 µM)
O=C(O)C1C2C=CC(C2)C1C(=O)Nc1ccccc1Br (stereo not given)	> 50.4 µg/mL
Cc1ccc(NCC(O)Cn2cnc3c2c(=O)n(C)c(=O)n3C)cc1 (stereo not given)	31.8 µg/mL (≈ 92.6 µM)
CCC(CC)NC(=O)Nc1ccc(C)cc1	21.4 µg/mL (≈ 97.1 µM)
Cc1ccsc1C(=O)OCC(=O)N1CCN(c2ccccc2)CC1	> 51.7 µg/mL
COc1ccc(N2CCN(C(=O)[C@H](C)N3C(=O)C4CC=CCC4C3=O)CC2)cc1 (stereo not given in full)	> 59.6 µg/mL
CCN(CC(=O)Nc1ccc(C)c(F)c1)CC(=O)NC(C)C	> 46.4 µg/mL
CCCCC(C(=O)O)C(C)CC(=O)Nc1nccs1 (stereo not given)	> 42.7 µg/mL
Cc1csc(NC(=O)c2ccccc2)n1	> 32.7 µg/mL
O=C(OCC(=O)N1CCOCC1)c1ccc2ccccc2c1O	28.2 µg/mL (≈ 89.4 µM)
O=C(c1ccc(COc2ccccc2Cl)o1)N1CCOCC1	34.4 µg/mL (≈ 107 µM)

Structure (SMILES)	solubility kinetic
CN(C)C(=S)SCCn1c(N)nc(N(C)C)nc1=O	> 45.4 µg/mL
CN(C)C(=O)CSc1nnc(Cc2ccc3c(c2)OCO3)o1	> 48.2 µg/mL
CCN(CC)CCCNc1ncnc2scc(-c3ccc(F)cc3)c12	> 53.8 µg/mL
Nc1nc(NCC(=O)O)nc(NCc2ccccc2)c1[N+](=O)[O-]	> 47.7 µg/mL
O=C1CSC(=Nc2ccc(F)cc2)N1	> 31.5 µg/mL
Brc1ccccc1OCCN1CCOCC1.O=C(O)C(=O)O	> 56.4 µg/mL
CCCCn1c(SCC(=O)N2CCOCC2)nc2ccccc2c1=O	> 54.2 µg/mL
CCOC(=O)c1c(C)[nH]c(C(=O)OCC(=O)NCc2ccccc2)c1C	4.5 µg/mL (≈ 12.6 µM)
O=C(NCc1cccnc1)Nc1ccc(Cl)c(Cl)c1	> 44.4 µg/mL
Cn1cccc2[nH]c(=O)nc1-2	15.5 µg/mL (≈ 104 µM)
CN(C)S(=O)(=O)c1cccc(NC(=O)CC23CC4CC(CC(C4)C2)C3)c1	10.8 µg/mL (≈ 28.7 µM)
Cc1ccc2nc(N3CCCCC3)c(C=O)c(=O)n2c1	39.1 µg/mL (≈ 144 µM)
O=c1[nH]c2ccccc2nc1-c1c[nH]c2ccccc12	0.2 µg/mL (≈ 0.765 µM)
CC1CCCN(c2nc3nonc3nc2Nc2ccccc2F)C1 (stereo not given)	0.8 µg/mL (≈ 2.44 µM)
COc1ccc(CNC(=O)COC(=O)c2ccccn2)cc1	> 45 µg/mL
CCn1ccnc1CN1CCCC(C(=O)c2ccc(OC)cc2OC)C1 (stereo not given)	48.7 µg/mL (≈ 136 µM)
COC(=O)c1ccc(OCC(=O)NC2CCCCCCC2)cc1	> 47.9 µg/mL
N=C1C(c2nc3ccccc3[nH]2)=C(O)CN1C1CCCCC1	0.4 µg/mL (≈ 1.35 µM)
CSc1c(CC(=O)Nc2ccccc2)n(C)c2ccccc12	0.4 µg/mL (≈ 1.29 µM)
Cc1ccc(C(=O)N2CCN(c3ccccn3)CC2)cc1Cl	> 47.4 µg/mL
Cc1ccc(C(=O)N2CCC(C(=O)c3c(C)cc(C)cc3C)CC2)cc1	24.1 µg/mL (≈ 69 µM)
CC(Sc1ccc(S(=O)(=O)N2CCCC2)cn1)C(N)=O (stereo not given)	> 47.3 µg/mL
COc1ccc(CNC(=O)c2cc(SC)ccc2Cl)cc1OC	49.1 µg/mL (≈ 140 µM)
Cc1cccc(NC(=O)c2cccc(C(=O)Nc3cccc(C)n3)c2)n1	0.9 µg/mL (≈ 2.6 µM)

Structure (SMILES)	solubility kinetic
CCOc1ncccc1C(=O)OCC(=O)NCc1ccccc1	45.9 µg/mL (≈ 146 µM)
CC1CCOC2(O1)C(=O)Nc1ccccc12 (stereo not given)	24.4 µg/mL (≈ 111 µM)
CC(=O)Nc1ccc(S(=O)(=O)NC(C)CCc2ccccc2)cc1 (stereo not given)	> 52 µg/mL
Cc1cc2ccccn2c1C(=O)c1cccc(F)c1	4.9 µg/mL (≈ 19.3 µM)
NC(=O)C1CCN(c2ccc(S(=O)(=O)N3CCCCC3)cc2[N+](=O)[O-])CC1	7.6 µg/mL (≈ 19.2 µM)
Cc1ccc(NC(=O)NC2CCCCCCC2)cc1C	< 0.3 µg/mL
CSCCC(NC(=O)c1ccco1)C(=O)NCCc1ccc(Cl)cc1 (stereo not given)	19.6 µg/mL (≈ 51.5 µM)
COc1ccc(-c2csc(NC(=O)Nc3ccccc3)n2)cc1	1.8 µg/mL (≈ 5.53 µM)
COc1ccc(S(=O)(=O)NC2CCCCC2)cc1F	> 43.1 µg/mL
COc1ccccc1C(=O)NC(CCSC)C(=O)NC1CC1 (stereo not given)	> 48.4 µg/mL
CCOc1ccc(NC(=O)CNC(=O)Cc2ccccc2)cc1	4.4 µg/mL (≈ 14.1 µM)
O=C(O/N=C1\CCCc2ccccc21)c1cccs1	< 0.6 µg/mL
CC(=O)c1ccc(S(=O)(=O)N2CCCCC2C(=O)O)cc1 (stereo not given)	45.9 µg/mL (≈ 147 µM)
COC(=O)/C=C1/SC(=NC(=O)c2ccc(OC)cc2)NC1=O	9.2 µg/mL (≈ 28.7 µM)
NC(=O)COC(=O)CSc1ccc2ccccc2c1	> 41.3 µg/mL
CC1CCN(S(=O)(=O)c2ccccc2)CC1	25.8 µg/mL (≈ 108 µM)
C=CCn1c(NCc2ccccc2O)nc2ccccc21	2.4 µg/mL (≈ 8.59 µM)
O=C1NC2(CCCCC2)N(C(=O)c2ccccc2)C2=C1CCCC2	8.1 µg/mL (≈ 25 µM)
CCCCOc1ccc(C2=CSC3=NCCN23)cc1[N+](=O)[O-]	> 47.9 µg/mL
O=c1[nH]c(=O)n(Cc2ccco2)c(O)c1C=NCCN1CCNCC1	> 52.1 µg/mL
O=C(Cn1cc([N+](=O)[O-])ccc1=O)N1CCc2ccccc2C1	> 47 µg/mL
CC(=O)c1cccc(NC(=O)COc2cc(C)on2)c1	> 41.1 µg/mL
CC(=O)Cc1nsc(NC(=O)c2ccc(Cl)cc2Cl)n1	> 49.5 µg/mL
O=c1cc(C(F)(F)F)nc(-c2ccccc2OC(F)(F)F)[nH]1	> 48.6 µg/mL

Structure (SMILES)	solubility kinetic
COc1ccccc1OCC(=O)Nc1nc(C)c(C)s1	> 43.9 µg/mL
O=[N+]([O-])c1ccc2c(c1)/C(=N\O)c1ccccc1-2	0.5 µg/mL (≈ 2.08 µM)
Cc1ccc(C(=O)Nc2cc(C)nn2CCC#N)cc1	> 40.2 µg/mL
CCN(CC)C(=O)c1c(C)[nH]c(=S)c(C#N)c1-c1ccco1	> 47.3 µg/mL
CSc1ncc(C(C)=O)c(C)n1	> 27.3 µg/mL
CC(CCc1ccccc1)NC(=O)CN(C)Cc1ccccc1F (stereo not given)	48.4 µg/mL (≈ 147 µM)
COc1ccccc1NC(=O)c1cc(Cl)nnc1Cl	> 44.7 µg/mL
Cc1onc(-c2c(Cl)cccc2Cl)c1C(=O)N1CCCCC1	> 50.9 µg/mL
COc1cc(SC)ccc1C(=O)N(Cc1ccccc1)c1ccccn1	> 54.7 µg/mL
O=C(CN1C(=O)c2cccc3cccc(c23)C1=O)NCCCO	> 46.8 µg/mL
CCOc1ccc2nc(S(N)(=O)=O)sc2c1	> 38.7 µg/mL
Cc1cccc(C)c1NC(=O)Cn1c(=O)c(N2CCCCC2)c(N)n(C)c1=O	> 57.8 µg/mL
CC(OC(=O)Cc1ccc(Br)cc1)C(=O)NC1CCCC1 (stereo not given)	48.7 µg/mL (≈ 137 µM)
Cc1cc(NC(=O)C(C)Oc2ccccc2)no1 (stereo not given)	> 36.9 µg/mL
C=CCNC(=O)CC1Nc2c3ccccc3nc(=S)n2C1=O (stereo not given)	> 47.2 µg/mL
CCc1ccc(Nc2nc(C)cc(C)c2C(N)=O)cc1	> 40.4 µg/mL
CCOc1ccc(NC(=O)CN(C)S(=O)(=O)c2cnc[nH]2)cc1	> 50.8 µg/mL
CC(=O)c1ccc2noc(-c3ccccc3)c2c1	31.8 µg/mL (≈ 134 µM)
O=[N+]([O-])c1cnccc1NC1CCCCC1	29.1 µg/mL (≈ 132 µM)
O=c1[nH]c(NCCO)nnc1Cc1ccccc1	> 36.9 µg/mL
COc1ccccc1CNC(=O)CCc1ccccc1	> 40.4 µg/mL
O=C(O)CN1C(=O)/C(=C/c2cccc(Cl)c2)Oc2ccccc21	30.8 µg/mL (≈ 93.4 µM)
NC(=O)COC(=O)c1ccc(-c2ccc(O)cc2)cc1	1.1 µg/mL (≈ 4.05 µM)
CN1CCC(C)(O)C2CCCCC21 (stereo not given)	> 27.5 µg/mL
